According to patent US12459951B2, “Compounds that interact with RAS superfamily proteins for treatment of cancers, inflammatory diseases, rasopathies, and fibrotic disease” (SHY Therapeutics, LLC, priority 2022, dated 2025):
Like-named read-outs stand apart in the source and are kept apart here.

Key:
[1] = system: MiaPaca-2 (expressing KRAS G12C mutant); assay: Proliferation Assay (Cell Viability Assay); type: cell-based; details: Homo sapiens, MIA PaCa-2
Method in brief: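 MiaPaca-2 cells (KRAS G12C) were grown in DMEM-high glucose with 10% FBS, seeded at 2000–5000 cells/well and cultured overnight. Compounds were added at 10 μM final, or as serial dilutions for IC50, in 0.3% DMSO/10% FBS for 2–4 days at 37 °C, 5% CO2. Viability was measured with CellTiter 96 Aqueous One and % inhibition calculated.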

KRas G12C mutant = assay: Ras GTP Binding Domain Inhibition Assay (Ras Superfamily Assay); details: 20 μM compound; for KRas G12C mutant + SOS: % inh.: with SOS; for KRas G12C mutant: % inh.: without SOS
Method in brief: (§1)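 His-tagged GTPases immobilised on nickel-coated plates, pre-incubated with compound (20 μM single point, or serial dilution for IC50) 3 h at room temperature, with or without 10-30 μg/mL Sos (residues 556-1049) in the final hour. Bound Cy3- or Cy5-GTP (100 nM, 45 min) measured by fluorescence after washing.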

KRas wild type = assay: as above; details: 20 μM compound; for KRas wild type + SOS: % inh.: with SOS; for KRas wild type: % inh.: without SOS
Method in brief: as §1

Rac-1 = target: T1, Rac-1 (Homo sapiens, UniProt P63000); assay: as above; details: read-out: Rac-1: % inh.
T1 construct: made in house
Method in brief: as §1

[2] = read-out: Proliferation in MiaPaca-2: IC50

Cn1ccnc1-c1nc(OCCN2CCCC2)c2c(-c3ccccc3)ccn2n1 [Compound 41, 2-(1-Methyl-1H-imidazol-2-yl)-5-phenyl-4-(2-(pyrrolidin-1-yl)ethoxy)pyrrolo[2,1-f][1,2,4]triazine]
IC50 [1, 2]: > 1000 nM | KRas G12C mutant + SOS: % inh. (KRas G12C mutant): 0 (0 = 0% inhibition) | KRas G12C mutant: % inh. (KRas G12C mutant): 0 (0 = 0% inhibition) | KRas wild type + SOS: % inh. (KRas wild type): 0 (0 = 0% inhibition) | KRas wild type: % inh. (KRas wild type): A (A = 1-25% inhibition) | inhibition at 20 µM (Rac-1): 0%

COc1cccc(-c2cn3nc(-c4nccn4C)nc(N[C@H]4C[C@H](OC)C4)c3c2-c2ccccc2)c1F [Compound 42, 6-(2-Fluoro-3-methoxyphenyl)-N-((1r,3r)-3-methoxycyclobutyl)-2-(1-methyl-1H-imidazol-2-yl)-5-phenylpyrrolo[2,1-f][1,2,4]triazin-4-amine]
IC50 [1, 2]: 510 to 1000 nM | KRas G12C mutant + SOS: % inh. (KRas G12C mutant): 0 (0 = 0% inhibition) | KRas G12C mutant: % inh. (KRas G12C mutant): 0 (0 = 0% inhibition) | KRas wild type + SOS: % inh. (KRas wild type): 0 (0 = 0% inhibition) | KRas wild type: % inh. (KRas wild type): 0 (0 = 0% inhibition) | inhibition at 20 µM (Rac-1): 0%

COCCO[C@H]1C[C@H](Nc2nc(-c3nccn3C)nn3cc(-c4cccc(OC)c4F)c(-c4ccccc4)c23)C1 [Compound 44, 6-(2-Fluoro-3-methoxyphenyl)-N-((1r,3r)-3-(2-methoxyethoxy)cyclobutyl)-2-(1-methyl-1H-imidazol-2-yl)-5-phenylpyrrolo[2,1-f][1,2,4]triazin-4-amine]
IC50 [1, 2]: > 1000 nM | KRas G12C mutant + SOS: % inh. (KRas G12C mutant): B (B = 26-49% inhibition) | KRas G12C mutant: % inh. (KRas G12C mutant): 0 (0 = 0% inhibition) | KRas wild type + SOS: % inh. (KRas wild type): B (B = 26-49% inhibition) | KRas wild type: % inh. (KRas wild type): 0 (0 = 0% inhibition) | inhibition at 20 µM (Rac-1): 26 to 49%

COc1cccc(-c2cn3nc(-c4nccn4C)nc(N[C@H]4C[C@H](OC)C4)c3c2-c2ccccn2)c1F [Compound 45, 6-(2-Fluoro-3-methoxyphenyl)-N-((1r,3r)-3-methoxycyclobutyl)-2-(1-methyl-1H-imidazol-2-yl)-5-(pyridin-2-yl)pyrrolo[2,1-f][1,2,4]triazin-4-amine]
IC50 [1, 2]: > 1000 nM | KRas G12C mutant + SOS: % inh. (KRas G12C mutant): A (A = 1-25% inhibition) | KRas G12C mutant: % inh. (KRas G12C mutant): B (B = 26-49% inhibition) | KRas wild type + SOS: % inh. (KRas wild type): B (B = 26-49% inhibition) | KRas wild type: % inh. (KRas wild type): B (B = 26-49% inhibition) | inhibition at 20 µM (Rac-1): 50 to 75%

COc1cccc(-c2cn3nc(-c4nccn4C)nc(N[C@H]4C[C@H](OC)C4)c3c2-c2ccn(C)n2)c1F [Compound 47, 6-(2-Fluoro-3-methoxyphenyl)-N-((1r,3r)-3-methoxycyclobutyl)-2-(1-methyl-1H-imidazol-2-yl)-5-(1-methyl-1H-pyrazol-3-yl)pyrrolo[2,1-f][1,2,4]triazin-4-amine]
IC50 [1, 2]: > 1000 nM | KRas G12C mutant + SOS: % inh. (KRas G12C mutant): 0 (0 = 0% inhibition) | KRas G12C mutant: % inh. (KRas G12C mutant): 0 (0 = 0% inhibition) | KRas wild type + SOS: % inh. (KRas wild type): 0 (0 = 0% inhibition) | KRas wild type: % inh. (KRas wild type): 0 (0 = 0% inhibition) | inhibition at 20 µM (Rac-1): 0%

COc1cc(Nc2nc(-c3nccn3C)nn3cc(-c4cccnc4)c(C)c23)ncn1 [Compound 48, N-(6-Methoxypyrimidin-4-yl)-5-methyl-2-(1-methyl-1H-imidazol-2-yl)-6-(pyridin-3-yl)pyrrolo[2,1-f][1,2,4]triazin-4-amine]
IC50 [1, 2]: < 150 nM | KRas G12C mutant + SOS: % inh. (KRas G12C mutant): A (A = 1-25% inhibition) | KRas G12C mutant: % inh. (KRas G12C mutant): C (C = 50-75% inhibition) | KRas wild type + SOS: % inh. (KRas wild type): B (B = 26-49% inhibition) | KRas wild type: % inh. (KRas wild type): C (C = 50-75% inhibition) | inhibition at 20 µM (Rac-1): 50 to 75%

COc1cc(Nc2nc(-c3nccn3C)nn3cc(-c4ccncc4)c(C)c23)ncn1 [Compound 49, N-(6-Methoxypyrimidin-4-yl)-5-methyl-2-(1-methyl-1H-imidazol-2-yl)-6-(pyridin-4-yl)pyrrolo[2,1-f][1,2,4]triazin-4-amine]
IC50 [1, 2]: < 150 nM | KRas G12C mutant + SOS: % inh. (KRas G12C mutant): 0 (0 = 0% inhibition) | KRas G12C mutant: % inh. (KRas G12C mutant): A (A = 1-25% inhibition) | KRas wild type + SOS: % inh. (KRas wild type): 0 (0 = 0% inhibition) | KRas wild type: % inh. (KRas wild type): B (B = 26-49% inhibition) | inhibition at 20 µM (Rac-1): 26 to 49%

COc1cc(-c2cn3nc(-c4nccn4C)nc(Nc4cc(OC)ncn4)c3c2C)ccn1 [Compound 50, 6-(2-Methoxypyridin-4-yl)-N-(6-methoxypyrimidin-4-yl)-5-methyl-2-(1-methyl-1H-imidazol-2-yl)pyrrolo[2,1-f][1,2,4]triazin-4-amine]
IC50 [1, 2]: < 150 nM | KRas G12C mutant + SOS: % inh. (KRas G12C mutant): A (A = 1-25% inhibition) | KRas G12C mutant: % inh. (KRas G12C mutant): A (A = 1-25% inhibition) | KRas wild type + SOS: % inh. (KRas wild type): B (B = 26-49% inhibition) | KRas wild type: % inh. (KRas wild type): C (C = 50-75% inhibition) | inhibition at 20 µM (Rac-1): 26 to 49%

COc1cc(Nc2nc(-c3nccn3C)nn3cc(-c4ccn(C(C)C)n4)c(C)c23)n[nH]1 [Compound 51, 6-(1-Isopropyl-1H-pyrazol-3-yl)-N-(5-methoxy-1H-pyrazol-3-yl)-5-methyl-2-(1-methyl-1H-imidazol-2-yl)pyrrolo[2,1-f][1,2,4]triazin-4-amine]
IC50 [1, 2]: > 1000 nM | KRas G12C mutant + SOS: % inh. (KRas G12C mutant): C (C = 50-75% inhibition) | KRas G12C mutant: % inh. (KRas G12C mutant): C (C = 50-75% inhibition) | KRas wild type + SOS: % inh. (KRas wild type): C (C = 50-75% inhibition) | KRas wild type: % inh. (KRas wild type): D (D = 76-100% inhibition) | inhibition at 20 µM (Rac-1): 76 to 100%

Cc1c(-c2ccn(C(C)C)n2)cn2nc(-c3nccn3C)nc(Nc3ccncc3)c12 [Compound 52, 6-(1-Isopropyl-1H-pyrazol-3-yl)-5-methyl-2-(1-methyl-1H-imidazol-2-yl)-N-(pyridin-4-yl)pyrrolo[2,1-f][1,2,4]triazin-4-amine]
IC50 [1, 2]: > 1000 nM | KRas G12C mutant + SOS: % inh. (KRas G12C mutant): A (A = 1-25% inhibition) | KRas G12C mutant: % inh. (KRas G12C mutant): 0 (0 = 0% inhibition) | KRas wild type + SOS: % inh. (KRas wild type): A (A = 1-25% inhibition) | KRas wild type: % inh. (KRas wild type): 0 (0 = 0% inhibition) | inhibition at 20 µM (Rac-1): 0%

COc1ccnc(Nc2nc(-c3nccn3C)nn3cc(-c4ccn(C(C)C)n4)c(C)c23)n1 [Compound 53, 6-(1-Isopropyl-1H-pyrazol-3-yl)-N-(4-methoxypyrimidin-2-yl)-5-methyl-2-(1-methyl-1H-imidazol-2-yl)pyrrolo[2,1-f][1,2,4]triazin-4-amine]
IC50 [1, 2]: < 150 nM | KRas G12C mutant + SOS: % inh. (KRas G12C mutant): C (C = 50-75% inhibition) | KRas G12C mutant: % inh. (KRas G12C mutant): C (C = 50-75% inhibition) | KRas wild type + SOS: % inh. (KRas wild type): C (C = 50-75% inhibition) | KRas wild type: % inh. (KRas wild type): C (C = 50-75% inhibition) | inhibition at 20 µM (Rac-1): 76 to 100%

Cc1c(-c2ccn(C(C)C)n2)cn2nc(-c3nccn3C)nc(Nc3ncccn3)c12 [Compound 54, 6-(1-Isopropyl-1H-pyrazol-3-yl)-5-methyl-2-(1-methyl-1H-imidazol-2-yl)-N-(pyrimidin-2-yl)pyrrolo[2,1-f][1,2,4]triazin-4-amine]
IC50 [1, 2]: < 150 nM | KRas G12C mutant + SOS: % inh. (KRas G12C mutant): C (C = 50-75% inhibition) | KRas G12C mutant: % inh. (KRas G12C mutant): D (D = 76-100% inhibition) | KRas wild type + SOS: % inh. (KRas wild type): C (C = 50-75% inhibition) | KRas wild type: % inh. (KRas wild type): C (C = 50-75% inhibition) | inhibition at 20 µM (Rac-1): 76 to 100%

Cc1c(-c2ccn(C(C)C)n2)cn2nc(-c3nccn3C)nc(Nc3ccncn3)c12 [Compound 55, 6-(1-Isopropyl-1H-pyrazol-3-yl)-5-methyl-2-(1-methyl-1H-imidazol-2-yl)-N-(pyrimidin-4-yl)pyrrolo[2,1-f][1,2,4]triazin-4-amine]
IC50 [1, 2]: < 150 nM | KRas G12C mutant + SOS: % inh. (KRas G12C mutant): C (C = 50-75% inhibition) | KRas G12C mutant: % inh. (KRas G12C mutant): B (B = 26-49% inhibition) | KRas wild type + SOS: % inh. (KRas wild type): C (C = 50-75% inhibition) | KRas wild type: % inh. (KRas wild type): D (D = 76-100% inhibition) | inhibition at 20 µM (Rac-1): 76 to 100%

COc1cnc(Nc2nc(-c3nccn3C)nn3cc(-c4ccn(C(C)C)n4)c(C)c23)nc1 [Compound 56, 6-(1-Isopropyl-1H-pyrazol-3-yl)-N-(5-methoxypyrimidin-2-yl)-5-methyl-2-(1-methyl-1H-imidazol-2-yl)pyrrolo[2,1-f][1,2,4]triazin-4-amine]
IC50 [1, 2]: 150 to 500 nM | KRas G12C mutant + SOS: % inh. (KRas G12C mutant): A (A = 1-25% inhibition) | KRas G12C mutant: % inh. (KRas G12C mutant): C (C = 50-75% inhibition) | KRas wild type + SOS: % inh. (KRas wild type): 0 (0 = 0% inhibition) | KRas wild type: % inh. (KRas wild type): B (B = 26-49% inhibition) | inhibition at 20 µM (Rac-1): 50 to 75%

Cc1c(-c2ccn(C(C)C)n2)cn2nc(-c3nccn3C)nc(Nc3ccccn3)c12 [Compound 57, 6-(1-Isopropyl-1H-pyrazol-3-yl)-5-methyl-2-(1-methyl-1H-imidazol-2-yl)-N-(pyridin-2-yl)pyrrolo[2,1-f][1,2,4]triazin-4-amine]
IC50 [1, 2]: < 150 nM | KRas G12C mutant + SOS: % inh. (KRas G12C mutant): D (D = 76-100% inhibition) | KRas G12C mutant: % inh. (KRas G12C mutant): D (D = 76-100% inhibition) | KRas wild type + SOS: % inh. (KRas wild type): D (D = 76-100% inhibition) | KRas wild type: % inh. (KRas wild type): D (D = 76-100% inhibition) | inhibition at 20 µM (Rac-1): 76 to 100%

COc1ccnc(Nc2nc(-c3nccn3C)nn3cc(-c4ccn(C(C)C)n4)c(C)c23)c1 [Compound 58, 6-(1-Isopropyl-1H-pyrazol-3-yl)-N-(4-methoxypyridin-2-yl)-5-methyl-2-(1-methyl-1H-imidazol-2-yl)pyrrolo[2,1-f][1,2,4]triazin-4-amine]
IC50 ([1]; MiaPaca2, pancreatic, KRas G12C, read-out: Proliferation assay IC50): < 150 nM | IC50 ([1]; Proliferation assay, MiaPaca-2, read-out: MiaPaca-2 IC50 (nM) Pancreatic): 1 to 10 nM | IC50 [1, 2]: < 150 nM | KRas G12C mutant + SOS: % inh. (KRas G12C mutant): C (C = 50-75% inhibition) | KRas G12C mutant: % inh. (KRas G12C mutant): D (D = 76-100% inhibition) | KRas wild type + SOS: % inh. (KRas wild type): D (D = 76-100% inhibition) | KRas wild type: % inh. (KRas wild type): D (D = 76-100% inhibition) | inhibition at 20 µM (Rac-1): 76 to 100%
